Laboratory results: publication PMC7037321, “Development and Validation of Analytical Method for SH-1242 in the Rat and Mouse Plasma by Liquid Chromatography/Tandem Mass Spectrometry” (Molecules, 2020)
Values belong to the compound of their own block, whether it stands above or below them.

Key:
[1] = set-up: method as in PMID 11320671; settings: rats; cited from earlier work
[2] = Stability in stock solutions under typical storage conditions; type: physicochemical; settings: stock solution in methanol (SH-1242 1 mg/mL, IS 500 ng/mL), n = 3
Description: (§1) Stock solutions of SH-1242 and IS were prepared at the concentrations of 1 mg/mL and 500 ng/mL in methanol, respectively. A serial dilution of the SH-1242 stock solution with methanol was carried out to obtain a set of SH-1242 standard solutions, and 5 µL aliquots of these standard solutions were added to 45 µL of blank plasma to prepare SH-1242 calibration standards at concentrations of 1, 2, 5, 10, 20, 50, 100, 200, 500, and 1000 ng/mL for rat plasma and 2, 5, 10, 20, 50, 100, 200, 500, and 1000 ng/mL for mouse plasma. Using similar dilution protocol, a batch of QC samples for SH-1242 was prepared at concentrations of 1 (LLOQ), 2 (low QC), 40 (mid QC), and 800 ng/mL (high QC) for rat plasma and 2 (LLOQ), 4 (low QC), 40 (mid QC), and 800 ng/mL (high QC) for mouse plasma. Samples were then processed according to the procedure described in Section 3.5.
(§2) The stability of SH-1242 and IS was evaluated under various storage and handling conditions. Stock solutions of SH-1242 and IS at concentrations of 1 mg/mL and 500 ng/mL, respectively, were stored at room temperature (25 °C) for 6 h, under refrigerated conditions (4 °C) for 24 h or 2 weeks, or under two different frozen conditions (−20 °C and −80 °C) for 2 weeks. Solutions of SH-1242 were diluted to 50 ng/mL prior to analysis. In addition, QC samples at three different concentrations (2 or 4 ng/mL, 40 ng/mL, and 800 ng/mL) were prepared and processed. The samples were then placed in various handling conditions (i.e., standing in an autosampler (4 °C for 3 days) or under bench-top condition (25 °C for 24 h), or subjected to three freeze-thaw cycles, or long-term refrigeration (4 °C for 2 weeks)). Mean peak areas of stock solutions were compared with those of fresh stock solutions. For QC samples, the results were compared with nominal concentrations. In this study, analytes were considered stable under test conditions when accuracies at each concentration were within 15% of nominal concentration.

[3] = Pharmacokinetic study after single intravenous administration to mice; type: in vivo; settings: male, ICR, plasma, single intravenous 0.1 mg/kg, representative (one time point per mouse)
Description: (§3) To test the applicability of the current assay to pharmacokinetic studies, in preclinical animal species, male Sprague-Dawley rats (weighing 250–270 g) or ICR mice (weighing 18–20 g) were used. Prior to the experiment, animals fasted for 12 h with free access to water. SH-1242 was dissolved in a dosing vehicle consisting of dimethyl sulfoxide, PEG400 (Sigma-Aldrich, St. Louis, MO, USA), and normal saline in a ratio of 1:6:3 (v/v/v%), and intravenously bolus-injected to the right femoral vein at 2 mL/kg for rats or to the tail vein at 5 mL/kg for mice. In this study, the intravenous dose of SH-1242 was set at 0.1 mg/kg for both species. Blood samples (approximately 150 µL each) were collected in heparinized tubes via the right femoral artery at 2, 5, 15, 30, 60, 90, 120, 180, 240, 360, and 480 min after the administration to rats (n = 4) and via the retro-orbital plexus at 2, 5, 15, 30, 60, or 120 min after the administration to mice (n = 3 for each time point). For the mouse study, a blood sample was obtained once from each animal, and the animal was sacrificed after collection. Plasma was obtained by centrifuging blood samples at 16,100 g for 5 min at 4 °C and then processed, as described in Section 3.5. The plasma concentration versus time data was analyzed using the non-compartmental method in the WinNonlin software (WinNonlin Professional 5.0.1.; Pharsight, Mountain View, CA, USA) to calculate essential kinetic parameters, such as terminal phase half-life (T1/2), systemic clearance (CL), and steady-state volume of distribution (Vss).

[4] = Stability of QC samples in mouse plasma under handling and storage conditions; type: in vitro ADME; settings: n = 3; for Accuracy (RE%), freeze-thaw stability / Mean concentration, freeze-thaw stability: 3 freeze-thaw cycles; for Accuracy (RE%), long term stability / Mean concentration, long term stability: 4 °C for 2 weeks; for Accuracy (RE%), autosampler stability / Mean concentration, autosampler stability: processed sample, 4 °C for 3 days; for Accuracy (RE%), benchtop stability / Mean concentration, benchtop stability: room temperature (25 °C) for 24 h
Description: as §1, §2

[5] = Pharmacokinetic study after single intravenous administration to rats; type: in vivo; settings: male, Sprague-Dawley, rat, plasma, single intravenous 0.1 mg/kg, n = 4, mean ± S.D.
Description: as §3

[6] = Stability of QC samples in rat plasma under handling and storage conditions; type: in vitro ADME; settings: n = 3; for Accuracy (RE%), freeze-thaw stability / Mean concentration, freeze-thaw stability: 3 freeze-thaw cycles; for Accuracy (RE%), long term stability / Mean concentration, long term stability: 4 °C for 2 weeks; for Accuracy (RE%), autosampler stability / Mean concentration, autosampler stability: processed sample, 4 °C for 3 days; for Accuracy (RE%), benchtop stability / Mean concentration, benchtop stability: room temperature (25 °C) for 24 h
Description: as §1, §2

[7] = test system: hypoxia-mediated angiogenesis; set-up: method as in PMID 24875598; settings: in vitro model of hypoxia-mediated angiogenesis; cited from earlier work

SMILES: COc1cc2c(cc1OC)[C@@H]1C(=O)c3ccc4c(c3O[C@@H]1CO2)C=CC(C)(C)O4 [deguelin, reference compound]
CL [1]: 72.7 mL/min/kg | Vss [1]: 30.5 L/kg | Relative conc. (%) vs initial ([2]; Refrigerated (4 °C, 2 Weeks)): 92.3% | Relative conc. (%) vs initial ([2]; Refrigerated (4 °C, 24 h)): 105% | Relative conc. (%) vs initial ([2]; Refrigerated (−20 °C, 2 Weeks)): 91.4% | Relative conc. (%) vs initial ([2]; Refrigerated (−80 °C, 2 Weeks)): 86.2% | Relative conc. (%) vs initial ([2]; Room Temp. (6 h)): 101%

AUC(0-inf) [3]: 24 ng·h/mL | MRT [3]: 0.493 h | clearance [3]: 69.4 mL/min/kg | half-life [3]: 0.438 h | Vd ([3]; read-out: Vss): 2.06 L/kg | Relative conc. (%) vs initial ([2]; Refrigerated (4 °C, 2 Weeks)): 85.2% | Relative conc. (%) vs initial ([2]; Refrigerated (4 °C, 24 h)): 105% | Relative conc. (%) vs initial ([2]; Refrigerated (−20 °C, 2 Weeks)): 89.1% | Relative conc. (%) vs initial ([2]; Refrigerated (−80 °C, 2 Weeks)): 90.8% | Relative conc. (%) vs initial ([2]; Room Temp. (6 h)): 109% | Accuracy (RE%), freeze-thaw stability ([4]; HQC theoretical 800 ng/mL): 5.00% | Mean concentration, freeze-thaw stability ([4]; HQC theoretical 800 ng/mL): 840 ng/mL | Accuracy (RE%), freeze-thaw stability ([4]; LQC theoretical 4 ng/mL): 11.3% | Mean concentration, freeze-thaw stability ([4]; LQC theoretical 4 ng/mL): 4.45 ng/mL | Accuracy (RE%), freeze-thaw stability ([4]; MQC theoretical 40 ng/mL): 6.00% | Mean concentration, freeze-thaw stability ([4]; MQC theoretical 40 ng/mL): 42.4 ng/mL | Accuracy (RE%), long term stability ([4]; HQC theoretical 800 ng/mL): 8.08% | Mean concentration, long term stability ([4]; HQC theoretical 800 ng/mL): 865 ng/mL | Accuracy (RE%), long term stability ([4]; LQC theoretical 4 ng/mL): –4.08% | Mean concentration, long term stability ([4]; LQC theoretical 4 ng/mL): 3.84 ng/mL | Accuracy (RE%), long term stability ([4]; MQC theoretical 40 ng/mL): 12.0% | Mean concentration, long term stability ([4]; MQC theoretical 40 ng/mL): 44.8 ng/mL | Accuracy (RE%), autosampler stability ([4]; HQC theoretical 800 ng/mL): 7.83% | Mean concentration, autosampler stability ([4]; HQC theoretical 800 ng/mL): 863 ng/mL | Accuracy (RE%), autosampler stability ([4]; LQC theoretical 4 ng/mL): 4.67% | Mean concentration, autosampler stability ([4]; LQC theoretical 4 ng/mL): 4.19 ng/mL | Accuracy (RE%), autosampler stability ([4]; MQC theoretical 40 ng/mL): 6.50% | Mean concentration, autosampler stability ([4]; MQC theoretical 40 ng/mL): 42.6 ng/mL | Accuracy (RE%), benchtop stability ([4]; HQC theoretical 800 ng/mL): 1.25% | Mean concentration, benchtop stability ([4]; HQC theoretical 800 ng/mL): 810 ng/mL | Accuracy (RE%), benchtop stability ([4]; LQC theoretical 4 ng/mL): 5.25% | Mean concentration, benchtop stability ([4]; LQC theoretical 4 ng/mL): 4.21 ng/mL | Accuracy (RE%), benchtop stability ([4]; MQC theoretical 40 ng/mL): 4.25% | Mean concentration, benchtop stability ([4]; MQC theoretical 40 ng/mL): 41.7 ng/mL | AUC(0-inf) [5]: 55.8 ng·h/mL | MRT [5]: 2.48 h | clearance [5]: 30.5 ± 4.49 mL/min/kg | half-life [5]: 2.43 ± 0.983 h | Vd ([5]; read-out: Vss): 4.38 ± 0.716 L/kg | Accuracy (RE%), freeze-thaw stability ([6]; HQC theoretical 800 ng/mL): –2.50% | Mean concentration, freeze-thaw stability ([6]; HQC theoretical 800 ng/mL): 780 ng/mL | Accuracy (RE%), freeze-thaw stability ([6]; LQC theoretical 2 ng/mL): –7.83% | Mean concentration, freeze-thaw stability ([6]; LQC theoretical 2 ng/mL): 1.84 ng/mL | Accuracy (RE%), freeze-thaw stability ([6]; MQC theoretical 40 ng/mL): 4.92% | Mean concentration, freeze-thaw stability ([6]; MQC theoretical 40 ng/mL): 41.97 ng/mL | Accuracy (RE%), long term stability ([6]; HQC theoretical 800 ng/mL): –8.71% | Mean concentration, long term stability ([6]; HQC theoretical 800 ng/mL): 730 ng/mL | Accuracy (RE%), long term stability ([6]; LQC theoretical 2 ng/mL): 0.833% | Mean concentration, long term stability ([6]; LQC theoretical 2 ng/mL): 2.02 ng/mL | Accuracy (RE%), long term stability ([6]; MQC theoretical 40 ng/mL): –6.75% | Mean concentration, long term stability ([6]; MQC theoretical 40 ng/mL): 37.3 ng/mL | Accuracy (RE%), autosampler stability ([6]; HQC theoretical 800 ng/mL): –3.33% | Mean concentration, autosampler stability ([6]; HQC theoretical 800 ng/mL): 773 ng/mL | Accuracy (RE%), autosampler stability ([6]; LQC theoretical 2 ng/mL): –0.167% | Mean concentration, autosampler stability ([6]; LQC theoretical 2 ng/mL): 2.00 ng/mL | Accuracy (RE%), autosampler stability ([6]; MQC theoretical 40 ng/mL): –2.75% | Mean concentration, autosampler stability ([6]; MQC theoretical 40 ng/mL): 38.9 ng/mL | Accuracy (RE%), benchtop stability ([6]; HQC theoretical 800 ng/mL): –7.88% | Mean concentration, benchtop stability ([6]; HQC theoretical 800 ng/mL): 737 ng/mL | Accuracy (RE%), benchtop stability ([6]; LQC theoretical 2 ng/mL): –6.33% | Mean concentration, benchtop stability ([6]; LQC theoretical 2 ng/mL): 1.87 ng/mL | Accuracy (RE%), benchtop stability ([6]; MQC theoretical 40 ng/mL): –6.83% | Mean concentration, benchtop stability ([6]; MQC theoretical 40 ng/mL): 37.3 ng/mL
SMILES: COc1ccc(CC(=O)c2ccc3c(c2OC)C=CC(C)(C)O3)cc1OC [SH-1242, 2-(3,4-dimethoxyphenyl)-1-(5-methoxy-2,2-dimethyl-2H-chromen-6-yl)ethanone]
effective concentration (antiangiogenic activity) [7]: ~10 nM
